Assays:
Experiment in all cases: relative viability (nuclei count vs DMSO), 5 days (fraction); higher = more cells survive
TGX 221 + Dasatinib = compound: CC1=CN2C(=O)C=C(N=C2C(=C1)C(C)NC3=CC=CC=C3)N4CCOCC4 [TGX 221] + Cc1nc(Nc2ncc(C(=O)Nc3c(C)cccc3Cl)s2)cc(N2CCN(CCO)CC2)n1 [Dasatinib] (partner 0.075 µM)
Summary of the method: (§1)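 A single step with final 0.05% Triton X-100, 1% formaldehyde and 1 ug/ml Hoechst fixed the cells and stained nuclei 5 days after treatment. Lung cancer cell lines in 1536-well plates had been treated by pin tool the day after seeding with one drug alone or a fixed anchor-drug dose plus five library-drug doses (not always all listed) in √10 steps, and nuclei were counted on 4× images. Relative viability is the ratio of nuclei in treated wells to nuclei in vehicle wells, taken as the median of duplicate plates.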

[1] = compound: C1=CC=C(C(=C1)C2=CC=C(C=C2)C3=CSC4=C3C(=C(C(=O)N4)C#N)O)O + C[C@]1(O)C[C@@H](c2nc(-c3ccc4ccc(-c5ccccc5)nc4c3)c3c(N)nccn32)C1 [Linsitinib] (partner 1 µM)
Summary of the method: as §1

TGX 221 + Alpelisib = compound: CC1=CN2C(=O)C=C(N=C2C(=C1)C(C)NC3=CC=CC=C3)N4CCOCC4 [TGX 221] + Cc1nc(NC(=O)N2CCC[C@H]2C(N)=O)sc1-c1ccnc(C(C)(C)C(F)(F)F)c1 [Alpelisib] (partner 2 µM)
Summary of the method: as §1

[2] = compound: C1=CC=C(C(=C1)C2=CC=C(C=C2)C3=CSC4=C3C(=C(C(=O)N4)C#N)O)O + O=C(c1cc(Cc2n[nH]c(=O)c3ccccc23)ccc1F)N1CCN(C(=O)C2CC2)CC1 [Olaparib] (partner 8 µM)
Summary of the method: as §1

| Cell Line | relative viability (TGX 221 + Dasatinib; first compound 0.08 µM) | relative viability (TGX 221 + Dasatinib; first compound 0.253 µM) | relative viability (TGX 221 + Dasatinib; first compound 0.8 µM) | relative viability (TGX 221 + Dasatinib; first compound 2.53 µM) | relative viability (TGX 221 + Dasatinib; first compound 8 µM) | relative viability ([1]; first compound 0.253 µM) | relative viability ([1]; first compound 0.8 µM) | relative viability ([1]; first compound 2.53 µM) | relative viability ([1]; first compound 8 µM) | relative viability (TGX 221 + Alpelisib; first compound 0.08 µM) | relative viability (TGX 221 + Alpelisib; first compound 0.253 µM) | relative viability (TGX 221 + Alpelisib; first compound 0.8 µM) | relative viability (TGX 221 + Alpelisib; first compound 2.53 µM) | relative viability (TGX 221 + Alpelisib; first compound 8 µM) | relative viability ([2]; first compound 0.08 µM) | relative viability ([2]; first compound 0.253 µM) | relative viability ([2]; first compound 0.8 µM) | relative viability ([2]; first compound 2.53 µM) | relative viability ([2]; first compound 8 µM) | relative viability ([1]; first compound 0.08 µM) |
| --- | --- | --- | --- | --- | --- | --- | --- | --- | --- | --- | --- | --- | --- | --- | --- | --- | --- | --- | --- | --- |
| HARA | 0.207 | 0.254 | 0.289 | 0.26 | 0.315 | 1.68 | 0.998 | 1.07 | 0.774 | 0.778 | 0.659 | 0.803 | 0.574 | 0.584 | 0.687 | 1.55 | 0.727 | 1.1 | 0.762 | – |
| HCC-15 | 0.595 | 0.575 | 0.657 | 0.564 | 0.608 | 0.844 | 0.985 | 0.918 | 0.871 | 0.893 | 0.788 | 0.958 | 0.831 | 0.776 | 0.797 | 0.789 | 0.705 | 0.728 | 0.802 | 0.914 |
| HCC-44 | – | – | – | – | – | 0.84 | 0.66 | 0.715 | 0.58 | 0.784 | 0.667 | 0.632 | 0.597 | 0.473 | 0.979 | 1.14 | 1.01 | 1.01 | 0.887 | 0.587 |
| HCC-78 | 0.405 | 0.324 | 0.231 | 0.235 | 0.246 | 0.73 | 0.551 | 0.484 | 0.462 | 0.299 | 0.23 | – | 0.2 | 0.175 | 0.815 | 1.4 | 0.91 | 0.787 | 0.711 | 0.534 |
| HCC-366 | 0.693 | 0.606 | 0.639 | 0.586 | 0.55 | 0.786 | 0.795 | 0.657 | 0.451 | 0.307 | 0.234 | 0.245 | 0.0984 | 0.127 | – | 0.384 | 0.369 | 0.41 | 0.302 | 0.819 |
| HCC-827 | 0.28 | 0.296 | 0.387 | 0.273 | 0.15 | 1.04 | 0.995 | 0.993 | 0.955 | 0.929 | 0.807 | 0.904 | 0.482 | 0.438 | 0.739 | 0.65 | 0.59 | 0.662 | 0.622 | 1.02 |
| HOP-62 | 0.668 | 0.566 | 0.635 | 0.533 | 0.534 | 1.15 | 0.97 | 1.05 | 0.736 | 0.899 | 0.958 | 0.827 | 1.13 | 1.11 | 0.592 | 0.471 | 0.515 | 0.844 | 0.233 | 1.19 |
